Source: patent publication US20040229230A1, “Method for gene isolation by Cre-trap cloning” (priority 2002, published 2004)

Experiments:
[1] = test system: parent BW cell line (BW5147 murine thymoma); assay: Culture of parent BW cell line in ganciclovir (HSVTK activity assessment); type: cell-based; details: 5 μM ganciclovir; parent BW cell line without HSVTK
Description: (§1) BW subclones with varying levels of GFPCre expression were tested for functional Cre recombinase and HSVTK activity. The pCT.1 (pCT.1^AMP) vector was transiently transfected into each cell line followed by recovery and analysis of plasmid configuration (pCT.1^AMP vs. pCT.1^CAT). Maximal conversion would result in equimolar ratios of pCT.1^AMP and pCT.1^CAT due to the reversible nature of the reaction. […] The kinetics of conversion in cell lines expressing different levels of GFPCre was evaluated. To assess HSVTK activity, all of the cell lines were cultured in 5 μM ganciclovir. […] No spontaneous revertants were isolated, which, given the culture conditions, puts the spontaneous reversion rate at <10^−8.

[2] = test system: GFPCre:IRES:HSVTK expressing clones (BW5147 subclones); assay: Culture of GFPCre:IRES:HSVTK expressing BW clones in ganciclovir (HSVTK activity assessment); type: cell-based, murine; details: 5 μM ganciclovir
Text: 2.1 GFPCre:IRES:HSVTK cassette function: A retroviral vector was generated with the cDNA encoding the GFPCre fusion protein followed by an […] ribosomal entry site (IRES) and the cDNA encoding HSVTK (FIG. 2). In addition, the upstream activating sequence (UAS) which binds the Gal4 transcriptional trans-activator was cloned upstream of the GFPCre cDNA (FIG. 2). The BW5147 thymoma was infected with this retrovirus, and subclones (BW-1, 5, 41 and 50) expressing different levels of the GFPCre fusion protein were identified by flow cytometry (FIG. 3).
as §1

**Q.** How did the “growth in media with ganciclovir” value [1] turn out when `Nc1nc(O)c2ncn(COC(CO)CO)c2n1` [ganciclovir] was run?
**A.** normal growth

**Q.** And the “growth/survival in media with ganciclovir” value [2]?
**A.** all died
